Assay results published in patent US11370774B2, “Substituted benzofuran, benzopyrrole, benzothiophene, and structurally related complement inhibitors” (BioCryst Pharmaceuticals, Inc., priority 2018, dated 2022).

Molecular target: Factor D (Homo sapiens (Human), UniProt P00746)
Test: Factor D esterolytic assay (Z-Lys-SBzl substrate, DTNB, 405 nm)
Type: biochemical
Conditions: Z-Lys-SBzl 1.29 mM, pH 7.5, 10% DMSO, tested a minimum of three times, read-out: Measured Ki (IC50) Value for Compounds: IC50
Procedure, shortened: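 Human Factor D ([…]) with 1.29 mM Z-Lys-SBzl in 100 mM HEPES, 500 mM NaCl, pH 7.5, 10% DMSO; substrate added immediately or after room-temperature preincubation. Released thiol reacted with DTNB, rate followed at 405 nm for 600 sec, 690 nm background subtracted. IC50 from percent inhibition versus uninhibited rate, n≥3.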

Chain of Factor D (P00746 26-253): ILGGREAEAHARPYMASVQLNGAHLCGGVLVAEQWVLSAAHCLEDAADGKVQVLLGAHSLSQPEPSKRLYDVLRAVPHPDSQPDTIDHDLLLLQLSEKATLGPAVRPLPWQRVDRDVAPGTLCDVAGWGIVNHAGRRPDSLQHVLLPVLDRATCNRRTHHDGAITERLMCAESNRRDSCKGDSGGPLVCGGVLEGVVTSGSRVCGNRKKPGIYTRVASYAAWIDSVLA

Row | Compound | IC50 [µM]
1 | NCc1ccc(-c2cc(CC(=O)N3[C@@H]4C[C@@H]4C[C@H]3C(=O)NCc3cccc(Cl)c3F)cc3ccoc23)cc1 [Compound 275e, (1R,3S,5R)-2-(2-(7-(4-(aminomethyl)phenyl)benzofuran-5-yl)acetyl)-N-(3-chloro-2-fluorobenzyl)-2-azabicyclo[3.1.0]hexane-3-carboxamide] | 1 to 10
2 | NCc1cccc(-c2cc(COc3cccc(C(F)(F)F)c3CC(=O)O)cc3ccoc23)c1 [Compound 282f, 2-(2-((7-(3-(aminomethyl)phenyl)benzofuran-5-yl)methoxy)-6-(trifluoromethyl)phenyl)acetic acid] | < 1
3 | NCc1cccc(-c2cc(COc3ccccc3CC(=O)O)cc3cc(CNCc4ccccc4)oc23)c1 [Compound 283c, 2-(2-((7-(3-(aminomethyl)phenyl)-2-((benzylamino)methyl)benzofuran-5-yl)methoxy)phenyl)acetic acid] | < 1
4 | NCc1cccc(-c2cc(COc3ccccc3CC(=O)O)cc3cc(COCc4ccccc4)oc23)c1 [Compound 284f, 2-(2-((7-(3-(aminomethyl)phenyl)-2-((benzyloxy)methyl)benzofuran-5-yl)methoxy)phenyl)acetic acid] | < 1
5 | NCc1cccc(-c2cc(COc3ccccc3CC(=O)O)cc3cccnc23)c1 [Compound 285e, 2-(2-((8-(3-(aminomethyl)phenyl)quinolin-6-yl)methoxy)phenyl)acetic acid] | < 1
6 | Cc1cc(CC(=O)O)c(OCc2cc(-c3cccc(CN)c3)c3occc3c2)c2c1CCC2 [Compound 286g, 2-(4-((7-(3-(aminomethyl)phenyl)benzofuran-5-yl)methoxy)-7-methyl-2,3-dihydro-1H-inden-5-yl)acetic acid] | < 1
7 | CN(Cc1ccccc1)Cc1cc2cc(COc3ccccc3CC(=O)O)cc(-c3cccc(CN)c3)c2o1 [Compound 287c, 2-(2-((7-(3-(aminomethyl)phenyl)-2-((benzyl(methyl)amino)methyl)benzofuran-5-yl)methoxy)phenyl)acetic acid] | < 1
8 | NCc1cccc(-c2cc(COc3cc(C(F)(F)F)ccc3CC(=O)O)cc3ccoc23)c1 [Compound 288f, 2-(2-((7-(3-(aminomethyl)phenyl)benzofuran-5-yl)methoxy)-4-(trifluoromethyl)phenyl)acetic acid] | < 1
9 | CNC(=O)c1cc2cc(COc3ccccc3CC(=O)O)cc(-c3cccc(CN)c3)c2o1 [Compound 289d, 2-(2-((7-(3-(aminomethyl)phenyl)-2-(methylcarbamoyl)benzofuran-5-yl)methoxy)phenyl)acetic acid] | < 1
10 | NCc1cccc(-c2cc(COc3ccccc3CC(=O)O)cc3cc(C(=O)NCc4ccccc4)oc23)c1 [Compound 290c, 2-(2-((7-(3-(aminomethyl)phenyl)-2-(benzylcarbamoyl)benzofuran-5-yl)methoxy)phenyl)acetic acid] | < 1
11 | NCc1cccc(-c2cc(COc3c(CC(=O)O)ccc4occc34)cc3ccoc23)c1 [Compound 291g, 2-(4-((7-(3-(aminomethyl)phenyl)benzofuran-5-yl)methoxy)benzofuran-5-yl)acetic acid] | < 1
12 | Cc1ccc(CC(=O)O)c(OCc2cc(-c3cccc(CN)c3)c3occc3c2)c1C [Compound 292f, 2-(2-((7-(3-(aminomethyl)phenyl)benzofuran-5-yl)methoxy)-3,4-dimethylphenyl)acetic acid] | < 1
13 | NCc1cccc(-c2cc(COc3ccccc3C(=O)O)cc3ccoc23)c1 [Compound 293c, 2-((7-(3-(aminomethyl)phenyl)benzofuran-5-yl)methoxy)benzoic acid] | < 1

Results, then the compound that gave them:

Row | IC50 [µM] | Compound
14 | < 1 | CCCc1ccc(CC(=O)O)c(OCc2cc(-c3cccc(CN)c3)c3occc3c2)c1 [Compound 266g, 2-(2-((7-(3-(aminomethyl)phenyl)benzofuran-5-yl)methoxy)-4-propylphenyl)acetic acid]
15 | < 1 | Cc1noc2c(-c3cccc(CN)c3F)cc(COc3ccccc3CC(=O)O)cc12 [Compound 267h, 2-(2-((7-(3-(aminomethyl)-2-fluorophenyl)-3-methylbenzo[d]isoxazol-5-yl)methoxy)phenyl)acetic acid]
16 | < 1 | Cc1noc2c(-c3ccnc(CN)c3)cc(COc3ccccc3CC(=O)O)cc12 [Compound 268h, 2-(2-((7-(2-(aminomethyl)pyridin-4-yl)-3-methylbenzo[d]isoxazol-5-yl)methoxy)phenyl)acetic acid]
17 | < 1 | Cc1ccc(CC(=O)O)c(OCc2cc(-c3cccc(CN)c3F)c3occc3c2)c1 [Compound 270c, 2-(2-((7-(3-(aminomethyl)-2-fluorophenyl)benzofuran-5-yl)methoxy)-4-methylphenyl)acetic acid]
18 | < 1 | Cc1ccc(CC(=O)O)c(OCc2cc(-c3ccnc(CN)c3)c3occc3c2)c1 [Compound 271e, 2-(2-((7-(2-(aminomethyl)pyridin-4-yl)benzofuran-5-yl)methoxy)-4-methylphenyl)acetic acid]
19 | < 1 | Cc1ccc(CC(=O)O)c(OCc2cc(-c3ccnc(CN)c3F)c3occc3c2)c1 [Compound 272e, 2-(2-((7-(2-(aminomethyl)-3-fluoropyridin-4-yl)benzofuran-5-yl)methoxy)-4-methylphenyl)acetic acid]
20 | < 1 | NCc1cccc(-c2cc(CC(=O)N3[C@@H]4C[C@@H]4C[C@H]3C(=O)NCc3cccc(Cl)c3F)cc3ccoc23)c1 [Compound 273g, (1R,3S,5R)-2-(2-(7-(3-(aminomethyl)phenyl)benzofuran-5-yl)acetyl)-N-(3-chloro-2-fluorobenzyl)-2-azabicyclo[3.1.0]hexane-3-carboxamide]
21 | < 1 | Cc1cccc(CC(=O)O)c1OCc1cc(-c2cccc(CN)c2)c2occc2c1 [Compound 274g, 2-(2-((7-(3-(aminomethyl)phenyl)benzofuran-5-yl)methoxy)-3-methylphenyl)acetic acid]
22 | < 1 | Cc1cc(CC(=O)O)c(OCc2cc(-c3cccc(CN)c3)c3occc3c2)cc1C [Compound 276f, 2-(2-((7-(3-(aminomethyl)phenyl)benzofuran-5-yl)methoxy)-4,5-dimethylphenyl)acetic acid]
23 | < 1 | NCc1cccc(-c2cc(CC(=O)N3CCC[C@H]3C(=O)NCc3cccc(Cl)c3F)cc3ccoc23)c1 [Compound 277e, (S)-1-(2-(7-(3-(aminomethyl)phenyl)benzofuran-5-yl)acetyl)-N-(3-chloro-2-fluorobenzyl)pyrrolidine-2-carboxamide]
24 | < 1 | COc1cncc(NCc2cc3cc(COc4ccccc4CC(=O)O)cc(-c4cccc(CN)c4)c3o2)c1 [Compound 279c, 2-(2-((7-(3-(aminomethyl)phenyl)-2-(((5-methoxypyridin-3-yl)amino)methyl)benzofuran-5-yl)methoxy)phenyl)acetic acid]
25 | < 1 | COc1ccc(NCc2cc3cc(COc4ccccc4CC(=O)O)cc(-c4cccc(CN)c4)c3o2)cc1 [Compound 280c, 2-(2-((7-(3-(aminomethyl)phenyl)-2-(((4-methoxyphenyl)amino)methyl)benzofuran-5-yl)methoxy)phenyl)acetic acid]
26 | < 1 | NCc1cccc(-c2cc(COc3ccccc3CC(=O)O)cc3cc(CNCc4cccnc4)oc23)c1 [Compound 281c, 2-(2-((7-(3-(aminomethyl)phenyl)-2-(((pyridin-3-ylmethyl)amino)methyl)benzofuran-5-yl)methoxy)phenyl)acetic acid]
